According to publication PMC12497685, “Anticoronavirus Isoquinoline Alkaloids: Unraveling the Secrets of Their Structure–Activity Relationship” (Influenza and Other Respiratory Viruses, 2025):
Like-named read-outs stand apart in the source and are kept apart here.

Legend:
Format in all cases: cell-based
[1] = test system: SARS‐CoV‐2 spike protein pseudotyped lentivirus, D614G variant; settings: read-out: Pseudovirus assay, IC50, D614G
[2] = test system: SARS‐CoV‐2 spike protein pseudotyped lentivirus, Delta variant; test: organism not typed; settings: read-out: Pseudovirus assay, IC50, Delta
[3] = test system: SARS‐CoV‐2 spike protein pseudotyped lentivirus, Omicron variant; test: organism not typed; settings: read-out: Pseudovirus assay, IC50, Omicron
[4] = test system: SARS‐CoV‐2 spike protein pseudotyped lentivirus, D614G, Delta, and Omicron variants; settings: for IC50: read-out: Pseudovirus assay, IC50 values as a range over D614G, Delta, and Omicron variants

| Compound | IC50 [1] [µM] | IC50 ([2]; HEK-293T) [µM] | IC50 ([3]; HEK-293T) [µM] | IC50 ([1]; mean ± SEM (n = 3)) [µM] | IC50 ([2]; mean ± SEM (n = 3)) [µM] | IC50 ([3]; mean ± SEM (n = 3)) [µM] | IC50 [4] [µM] | activity in SARS‐CoV‐2 S‐protein and ACE2 binding (pseudovirus) assay (in words) [4] |
| --- | --- | --- | --- | --- | --- | --- | --- | --- |
| COc1ccc2cc1Oc1ccc(cc1)C[C@H]1c3c(cc4c(c3Oc3cc5c(cc3OC)CCN(C)[C@@H]5C2)OCO4)CCN1C [Cepharantine, Cepharanthine, reference compound] | 0.48 ± 0.09 | 1.64 ± 0.18 | 1.31 ± 0.07 | – | – | – | – | – |
| COc1cc2c3cc1Oc1c(OC)c(OC)cc4c1[C@@H](Cc1ccc(O)c(c1)Oc1ccc(cc1)C[C@@H]3N(C)CC2)N(C)CC4 [Compound 17, (+)‐berbamine] | 2.23 ± 0.49 | 2.56 ± 0.16 | 2.29 ± 0.29 | – | – | – | – | – |
| COc1cc2c3cc1Oc1c(O)c(OC)cc4c1[C@@H](Cc1ccc(O)c(c1)Oc1ccc(cc1)C[C@@H]3N(C)CC2)N(C)CC4 [Compound 19, (+)‐obamegine] | 1.4 ± 0.35 | 2.61 ± 0.42 | 1.19 ± 0.16 | – | – | – | – | – |
| CC(C)C[C@H](NC(=O)[C@H]1O[C@@H]1C(=O)O)C(=O)NCCCCN=C(N)N [E‐64, reference compound] | – | – | – | 23.1 ± 0.63 | 23.1 ± 1.3 | 22.7 ± 1.28 | 22.7 to 23.1 | – |
| (+)‐aromoline [Compound 16] | 0.67 ± 0.09 | – | – | – | 0.47 ± 0.08 | 0.86 ± 0.12 | 0.47 to 0.66 | – |
| (±)‐Haemanthidine [Compound 1] | – | – | – | > 10 | > 10 | – | – | inactive at nontoxic concentration |
